Data from PubChem BioAssay AID2060489 (Molecular Pharmacology Branch, DTP, NCI, 2025).
Where “and” joins values, the source holds several entries; their conditions need not be identical. Identical values can stand only once.

System: 922993-354-T-J3-PDC complex spheroids, viability
Experiment: Anticancer human tumor 922993-354-T-J3-PDC patient-derived endometrial carcinoma cell line growth inhibition [GQUAD]
Conditions: for viability, T/C: stronger effect = lower value
Text: DNA G-quadruplex Stabilizer Agents in Combinations in Complex Spheroids
A high-throughput screen of multi-cell type tumor spheroids was designed to identify active combinations of DNA G-quadruplex stabilizer agents and targeted small molecules. Complex spheroids include a stromal component modeled by human endothelial cells (HUVEC) and fibroblasts modeled by human mesenchymal stem cells (MSCs). The concentration ranges selected for each drug and investigational agent were based upon clinically achievable concentrations if the clinical Cmax of the agent was known.
Compounds. The drugs and investigational agents: pidnarulex (CX-5461; NSC782164), APTO-253 (NSC789042), BRACO-19 (NSC847499), peposertib (NSC802822), ceralasertib (NSC780249), elimusertib (NSC800525), camonsertib (NSC841442), AZD-1390 (NSC803789), olaparib (NSC753686), talazoparib (NSC767125), ART-558 (NSC835418), sotorasib (NSC818433), MRTX-1133 (NSC836407), SN-38 (NSC673596), topotecan (NSC609699), etoposide (NSC141540), doxorubicin (NSC123127), gemcitabine (NSC613327), 5-fluorouracil (NSC19893), paclitaxel (NSC125973), vemurafenib (NSC761431), panobinostat (NSC761190), R-306465 (JNJ-16241199; NSC773264), adavosertib (NSC754352), TP-3654 (NSC805149), carboplatin (NSC241240), KSQ-4279 (NSC840948), and staurosporine (NSC755774) were obtained from the National Cancer Institute (NCI) Developmental Therapeutics Program Chemical Repository (34). The FDA-approved anticancer drug set is available from the NCI Developmental Therapeutics Program. […] The stock solutions were prepared in dimethyl sulfoxide (DMSO, Sigma-Aldrich, St. Louis, MO, cat. D2650) at 800-fold the tested concentration and stored at -70 degrees C prior to their use. All drugs and investigational agents were tested over a range starting from a high concentration at or near the clinical Cmax and decreasing in half-log increments. If the clinical Cmax for an agent had not been determined, the highest concentration tested was 10 microM.
2.3 Cell Culture. All cells were maintained in an incubator at 37 degrees C and 5% CO2 with 95% humidity. The PDC lines were cultured according to standard operating procedures established by the NCI PDMR. All PDCs were thawed and cultured in Matrigel-coated flasks prepared with a working solution of 1X Ham's F-12 nutrient mix, without supplementation (Invitrogen, cat. 11765054), 100 U/mL penicillin-streptomycin (Invitrogen, cat. 15140122), and 2.5% Matrigel (Corning Inc., cat. 354248) for the first three passages. The 857933-349-R-J2-PDC line was cultured in 6C/Colon 1B media, which includes advanced DMEM/F-12 (Thermo Fisher Scientific, cat. 12634028), 10 mM HEPES (Thermo Fisher Scientific, cat. 15630080), 1X GlutaMAX supplement (Thermo Fisher Scientific, cat. 35050061), 0.1 mg/mL primocin (InvivoGen, cat. ant-pm-2), 10% defined fetal bovine serum, heat inactivated (HyClone Laboratories Inc., cat. SH30070.03HI), 50% L-WRN conditioned media (ATCC, cat. CRL-3276), 1.25 mM N-Acetyl-L-cysteine (Sigma-Aldrich, cat. A9165), 10 mM nicotinamide (Sigma-Aldrich, cat. N0636), 1X B-27 supplement (Thermo Fisher Scientific, cat. 17504044), 1X N-2 supplement (Thermo Fisher Scientific, cat. 17502048), 10 microM Y-27632 dihydrochloride (Tocris Bioscience, cat. 1254), and 50 ng/mL human EGF recombinant protein (Thermo Fisher Scientific, cat. PHG0311). The 485176-168-R4-J1-PDC line was cultured in Panc media, which includes all 6C/Colon 1B media components plus 100 ng/mL human FGF-10 (Thermo Fisher Scientific, cat. 100-26), 500 nM SB-431542 (Selleckchem, cat. S1067), and gastrin (Tocris, cat. 3006).
[…]
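Further: spheroids exposed to compounds for seven days.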
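Wherever viability, T/C is given: 100% = DMSO vehicle control viability.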

IC50 (curve of compound): > 10 µM and 3.85 µM
SMILES: O=c1[nH]cc(F)c(=O)[nH]1
viability, T/C (compound 0.0316 µM): 104% and 107% and 113%
viability, T/C (compound 0.1 µM): 98.3% and 97.9% and 83.3%
viability, T/C (compound 0.316 µM): 99.5% and 94.9% and 75%
viability, T/C (compound 1 µM): 76% and 72.9% and 90.1%
viability, T/C (compound 3.16 µM): 81.2% and 74.1% and 57%
viability, T/C (compound 10 µM): 47.9% and 65.3% and 16.6%
